{
  "source": "paper PMC7181660",
  "about": "“A novel specific PERK activator reduces toxicity and extends survival in Huntington's disease models” (Scientific Reports, 2020)",
  "assay_in_all_cases": "biochemical",
  "type_in_all_cases": "biochemical",
  "key": {"panel of 391 kinases [1]": {"target": "panel of 391 kinases (Homo sapiens, UniProt P49759)", "sequence (P49759 whole entry)": "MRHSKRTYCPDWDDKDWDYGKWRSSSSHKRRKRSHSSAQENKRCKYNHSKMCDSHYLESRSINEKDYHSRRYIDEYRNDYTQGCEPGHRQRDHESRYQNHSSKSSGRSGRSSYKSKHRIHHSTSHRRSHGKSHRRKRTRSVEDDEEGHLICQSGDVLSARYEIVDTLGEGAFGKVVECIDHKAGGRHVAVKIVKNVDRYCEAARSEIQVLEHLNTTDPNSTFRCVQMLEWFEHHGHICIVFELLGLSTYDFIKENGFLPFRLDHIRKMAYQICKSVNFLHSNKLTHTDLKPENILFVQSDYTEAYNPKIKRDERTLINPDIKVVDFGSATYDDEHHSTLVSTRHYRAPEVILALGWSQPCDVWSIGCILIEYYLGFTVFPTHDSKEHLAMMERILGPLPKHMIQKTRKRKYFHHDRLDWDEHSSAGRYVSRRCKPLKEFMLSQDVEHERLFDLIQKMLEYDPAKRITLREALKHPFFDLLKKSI", "conditions": "CLK1, MK-28 1 µM, ATP 1 µM"}, "panel of 391 kinases [2]": {"target": "panel of 391 kinases (Homo sapiens, UniProt P53667)", "conditions": "LIMK1, MK-28 1 µM, ATP 1 µM"}, "panel of 391 kinases [3]": {"target": "panel of 391 kinases (Homo sapiens, UniProt Q86Z02)", "conditions": "HIPK1, MK-28 1 µM, ATP 1 µM"}, "panel of 391 kinases [4]": {"target": "panel of 391 kinases (Homo sapiens, UniProt O15530)", "conditions": "PDK1/PDPK1, MK-28 1 µM, ATP 1 µM"}, "panel of 391 kinases [5]": {"target": "panel of 391 kinases (Homo sapiens, UniProt P45983)", "conditions": "JNK1, MK-28 1 µM, ATP 1 µM"}, "panel of 391 kinases [6]": {"target": "panel of 391 kinases (Homo sapiens, UniProt P19525)", "sequence (P19525 whole entry)": "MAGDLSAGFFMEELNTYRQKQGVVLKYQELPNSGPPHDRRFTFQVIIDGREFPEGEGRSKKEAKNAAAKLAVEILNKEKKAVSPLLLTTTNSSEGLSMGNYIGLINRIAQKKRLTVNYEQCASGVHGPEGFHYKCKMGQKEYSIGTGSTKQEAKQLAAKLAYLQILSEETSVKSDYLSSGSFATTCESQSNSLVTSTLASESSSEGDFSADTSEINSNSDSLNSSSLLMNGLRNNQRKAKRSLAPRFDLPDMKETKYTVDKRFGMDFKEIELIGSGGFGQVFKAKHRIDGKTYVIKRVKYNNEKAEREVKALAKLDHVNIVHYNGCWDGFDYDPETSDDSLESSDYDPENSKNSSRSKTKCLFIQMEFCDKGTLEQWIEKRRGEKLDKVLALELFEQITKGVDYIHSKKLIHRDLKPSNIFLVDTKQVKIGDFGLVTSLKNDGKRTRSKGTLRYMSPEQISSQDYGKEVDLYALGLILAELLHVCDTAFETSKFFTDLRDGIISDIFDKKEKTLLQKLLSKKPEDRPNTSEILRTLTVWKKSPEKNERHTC", "conditions": "kinase EIF2AK2, compound at 1 µM, single dose in duplicates, 1 µM ATP"}, "panel of 391 kinases [7]": {"target": "panel of 391 kinases (Homo sapiens, UniProt Q05397)", "conditions": "FAK/PTK2, MK-28 1 µM, ATP 1 µM"}, "panel of 391 kinases [8]": {"target": "panel of 391 kinases (Homo sapiens, UniProt Q9HBH9)", "conditions": "MNK2, MK-28 1 µM, ATP 1 µM"}, "panel of 391 kinases [9]": {"target": "panel of 391 kinases (Homo sapiens, UniProt P51451)", "conditions": "BLK, MK-28 1 µM, ATP 1 µM"}, "panel of 391 kinases [10]": {"target": "panel of 391 kinases (Homo sapiens, UniProt P43403)", "conditions": "ZAP70, MK-28 1 µM, ATP 1 µM"}, "panel of 391 kinases [11]": {"target": "panel of 391 kinases (Homo sapiens, UniProt P34947)", "conditions": "GRK5, MK-28 1 µM, ATP 1 µM"}, "panel of 391 kinases [12]": {"target": "panel of 391 kinases (Homo sapiens, UniProt Q9UKE5)", "conditions": "TNIK, MK-28 1 µM, ATP 1 µM"}, "panel of 391 kinases [13]": {"target": "panel of 391 kinases (Homo sapiens, UniProt P42685)", "conditions": "FRK/PTK5, MK-28 1 µM, ATP 1 µM"}, "panel of 391 kinases [14]": {"target": "panel of 391 kinases (Homo sapiens, UniProt O00418)", "conditions": "kinase EEF2K, compound at 1 µM, single dose in duplicates, 1 µM ATP"}, "panel of 391 kinases [15]": {"target": "panel of 391 kinases (Homo sapiens, UniProt Q9UEE5)", "sequence (Q9UEE5 whole entry)": "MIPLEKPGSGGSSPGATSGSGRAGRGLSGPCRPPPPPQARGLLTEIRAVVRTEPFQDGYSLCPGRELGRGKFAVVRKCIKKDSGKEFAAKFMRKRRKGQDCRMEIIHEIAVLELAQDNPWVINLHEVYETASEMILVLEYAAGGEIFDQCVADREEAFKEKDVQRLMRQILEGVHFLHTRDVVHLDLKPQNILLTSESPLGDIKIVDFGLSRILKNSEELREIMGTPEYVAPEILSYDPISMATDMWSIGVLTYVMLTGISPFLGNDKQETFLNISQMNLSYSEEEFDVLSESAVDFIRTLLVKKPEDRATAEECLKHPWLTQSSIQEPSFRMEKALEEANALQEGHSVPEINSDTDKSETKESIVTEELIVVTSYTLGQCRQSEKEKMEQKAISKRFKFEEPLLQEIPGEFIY", "conditions": "DRAK1/STK17A, MK-28 1 µM, ATP 1 µM"}, "panel of 391 kinases [16]": {"target": "panel of 391 kinases (Homo sapiens, UniProt Q13043)", "conditions": "MST1/STK4, MK-28 1 µM, ATP 1 µM"}, "panel of 391 kinases [17]": {"target": "panel of 391 kinases (Homo sapiens, UniProt Q86UX6)", "conditions": "STK32C/YANK3, MK-28 1 µM, ATP 1 µM"}, "panel of 391 kinases [18]": {"target": "panel of 391 kinases (Homo sapiens, UniProt Q13464)", "sequence (Q13464 whole entry)": "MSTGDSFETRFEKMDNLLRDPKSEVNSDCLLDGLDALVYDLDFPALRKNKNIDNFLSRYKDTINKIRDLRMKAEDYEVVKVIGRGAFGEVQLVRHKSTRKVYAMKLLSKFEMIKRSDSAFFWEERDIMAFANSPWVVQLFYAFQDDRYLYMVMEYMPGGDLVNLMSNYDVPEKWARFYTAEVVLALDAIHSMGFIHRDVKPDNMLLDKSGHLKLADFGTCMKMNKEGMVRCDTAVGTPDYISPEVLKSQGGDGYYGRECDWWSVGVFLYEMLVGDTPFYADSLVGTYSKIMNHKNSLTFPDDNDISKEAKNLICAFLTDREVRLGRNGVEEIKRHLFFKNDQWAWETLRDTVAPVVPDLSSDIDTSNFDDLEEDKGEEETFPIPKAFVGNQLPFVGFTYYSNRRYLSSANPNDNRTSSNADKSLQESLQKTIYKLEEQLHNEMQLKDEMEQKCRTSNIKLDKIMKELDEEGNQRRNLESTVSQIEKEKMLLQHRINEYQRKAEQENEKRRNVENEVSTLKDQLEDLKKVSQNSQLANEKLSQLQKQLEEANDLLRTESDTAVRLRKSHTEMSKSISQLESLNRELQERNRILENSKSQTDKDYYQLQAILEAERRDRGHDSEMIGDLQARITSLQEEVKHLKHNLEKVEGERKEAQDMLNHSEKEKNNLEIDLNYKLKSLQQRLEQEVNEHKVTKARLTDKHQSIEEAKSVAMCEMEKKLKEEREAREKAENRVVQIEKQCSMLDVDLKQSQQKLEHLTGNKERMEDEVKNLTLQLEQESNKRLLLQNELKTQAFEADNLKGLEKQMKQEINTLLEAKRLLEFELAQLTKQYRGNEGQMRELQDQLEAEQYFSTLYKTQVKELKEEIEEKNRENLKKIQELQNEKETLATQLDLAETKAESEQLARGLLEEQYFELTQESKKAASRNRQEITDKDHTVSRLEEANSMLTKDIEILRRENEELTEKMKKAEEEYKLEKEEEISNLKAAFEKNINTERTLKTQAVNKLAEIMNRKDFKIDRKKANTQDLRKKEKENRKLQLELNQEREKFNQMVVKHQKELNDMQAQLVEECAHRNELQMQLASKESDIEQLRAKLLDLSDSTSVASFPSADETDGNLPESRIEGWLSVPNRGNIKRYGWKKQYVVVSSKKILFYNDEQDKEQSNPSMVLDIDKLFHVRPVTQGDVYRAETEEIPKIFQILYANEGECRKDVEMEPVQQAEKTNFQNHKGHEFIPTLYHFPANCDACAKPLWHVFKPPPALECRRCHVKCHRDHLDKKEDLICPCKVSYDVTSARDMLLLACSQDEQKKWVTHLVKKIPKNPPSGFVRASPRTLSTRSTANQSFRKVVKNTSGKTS", "conditions": "ROCK1, MK-28 1 µM, ATP 1 µM"}, "panel of 391 kinases [19]": {"target": "panel of 391 kinases (Homo sapiens, UniProt P07332)", "conditions": "FES/FPS, MK-28 1 µM, ATP 1 µM"}, "panel of 391 kinases [20]": {"target": "panel of 391 kinases (Homo sapiens, UniProt Q9H2G2)", "sequence (Q9H2G2 whole entry)": "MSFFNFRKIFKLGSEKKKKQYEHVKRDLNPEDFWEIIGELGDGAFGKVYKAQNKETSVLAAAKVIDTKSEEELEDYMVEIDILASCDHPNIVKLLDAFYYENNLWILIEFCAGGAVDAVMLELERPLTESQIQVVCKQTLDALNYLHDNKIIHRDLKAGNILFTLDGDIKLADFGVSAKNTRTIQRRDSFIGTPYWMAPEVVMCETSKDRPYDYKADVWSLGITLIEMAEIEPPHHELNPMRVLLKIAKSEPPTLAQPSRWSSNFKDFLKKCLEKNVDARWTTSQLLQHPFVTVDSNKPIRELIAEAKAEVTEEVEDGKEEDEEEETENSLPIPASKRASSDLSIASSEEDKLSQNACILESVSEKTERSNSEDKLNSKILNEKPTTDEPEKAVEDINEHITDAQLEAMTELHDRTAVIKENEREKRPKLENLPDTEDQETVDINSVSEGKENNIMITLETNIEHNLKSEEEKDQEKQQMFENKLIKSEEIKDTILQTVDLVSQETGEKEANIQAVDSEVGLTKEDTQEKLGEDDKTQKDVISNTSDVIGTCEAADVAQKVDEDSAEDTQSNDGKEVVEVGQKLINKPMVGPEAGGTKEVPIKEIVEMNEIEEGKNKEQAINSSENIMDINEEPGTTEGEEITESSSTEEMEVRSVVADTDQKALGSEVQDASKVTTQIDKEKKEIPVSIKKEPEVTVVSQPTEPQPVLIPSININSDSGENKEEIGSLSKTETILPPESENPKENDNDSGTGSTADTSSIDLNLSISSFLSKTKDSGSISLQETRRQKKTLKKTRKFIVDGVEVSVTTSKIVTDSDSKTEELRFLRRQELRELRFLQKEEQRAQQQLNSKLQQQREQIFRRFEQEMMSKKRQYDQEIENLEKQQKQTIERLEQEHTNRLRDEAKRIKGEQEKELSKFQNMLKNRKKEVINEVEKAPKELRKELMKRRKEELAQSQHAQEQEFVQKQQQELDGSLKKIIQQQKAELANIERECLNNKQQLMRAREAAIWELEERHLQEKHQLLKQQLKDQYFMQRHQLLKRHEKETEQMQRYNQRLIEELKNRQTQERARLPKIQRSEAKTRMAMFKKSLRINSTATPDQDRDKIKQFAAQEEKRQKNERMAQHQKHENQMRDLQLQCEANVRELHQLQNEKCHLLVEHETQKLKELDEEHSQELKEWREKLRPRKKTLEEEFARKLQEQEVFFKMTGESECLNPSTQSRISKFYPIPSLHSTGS", "conditions": "SLK/STK2, MK-28 1 µM, ATP 1 µM"}, "panel of 391 kinases [21]": {"target": "panel of 391 kinases (Homo sapiens, UniProt P22607)", "conditions": "FGFR3, MK-28 1 µM, ATP 1 µM"}, "panel of 391 kinases [22]": {"target": "panel of 391 kinases (Homo sapiens, UniProt P07949)", "conditions": "RET, MK-28 1 µM, ATP 1 µM"}, "panel of 391 kinases [23]": {"target": "panel of 391 kinases (Homo sapiens, UniProt P29320)", "conditions": "EPHA3, MK-28 1 µM, ATP 1 µM"}, "panel of 391 kinases [24]": {"target": "panel of 391 kinases (Homo sapiens, UniProt Q9UF33)", "conditions": "EPHA6, MK-28 1 µM, ATP 1 µM"}, "panel of 391 kinases [25]": {"target": "panel of 391 kinases (Homo sapiens, UniProt Q8WTQ7)", "conditions": "GRK7, MK-28 1 µM, ATP 1 µM"}, "panel of 391 kinases [26]": {"target": "panel of 391 kinases (Homo sapiens, UniProt P29323)", "sequence (P29323 19-1055)": "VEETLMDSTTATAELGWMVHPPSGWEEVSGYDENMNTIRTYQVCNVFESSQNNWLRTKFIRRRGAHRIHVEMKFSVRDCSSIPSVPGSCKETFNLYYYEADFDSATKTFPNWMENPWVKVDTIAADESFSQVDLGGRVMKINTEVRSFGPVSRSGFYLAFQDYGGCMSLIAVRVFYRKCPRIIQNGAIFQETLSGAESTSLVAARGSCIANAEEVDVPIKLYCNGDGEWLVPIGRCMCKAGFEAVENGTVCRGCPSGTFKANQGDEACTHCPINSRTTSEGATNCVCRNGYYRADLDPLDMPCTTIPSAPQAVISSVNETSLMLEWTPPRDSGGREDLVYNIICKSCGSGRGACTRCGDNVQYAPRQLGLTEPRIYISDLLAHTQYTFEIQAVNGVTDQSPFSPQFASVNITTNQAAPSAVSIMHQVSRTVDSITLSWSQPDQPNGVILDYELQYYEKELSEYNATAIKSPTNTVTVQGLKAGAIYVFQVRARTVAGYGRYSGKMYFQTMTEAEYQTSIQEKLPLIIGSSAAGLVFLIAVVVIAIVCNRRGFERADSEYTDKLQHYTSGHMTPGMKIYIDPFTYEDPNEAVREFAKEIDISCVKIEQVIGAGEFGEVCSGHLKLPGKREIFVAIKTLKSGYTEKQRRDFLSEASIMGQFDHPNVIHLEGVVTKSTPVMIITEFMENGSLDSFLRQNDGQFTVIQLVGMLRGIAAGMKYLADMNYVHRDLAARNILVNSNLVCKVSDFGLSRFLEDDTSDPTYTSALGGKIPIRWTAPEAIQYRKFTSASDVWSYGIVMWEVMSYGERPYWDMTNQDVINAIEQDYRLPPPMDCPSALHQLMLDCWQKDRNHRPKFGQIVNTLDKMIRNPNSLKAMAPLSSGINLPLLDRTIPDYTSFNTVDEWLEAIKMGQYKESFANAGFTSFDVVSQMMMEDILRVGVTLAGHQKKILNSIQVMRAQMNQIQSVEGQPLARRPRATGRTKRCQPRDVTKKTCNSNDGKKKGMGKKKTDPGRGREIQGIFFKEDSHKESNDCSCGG", "conditions": "EPHB2, MK-28 1 µM, ATP 1 µM"}, "[27]": {"conditions": "read-out: % Enzyme Activity (relative to DMSO controls)"}},
  "data": [
    {"smiles": "CN(/N=C\\c1ccc(O)c(O)c1)c1nc(-c2ccccc2)cc(-c2ccccc2)n1", "note": "[MK-28]", "values": [
      {"measurement": "% Enzyme Activity (relative to DMSO controls)", "setting": "panel of 391 kinases [1]", "value": 108.65, "unit": "%"},
      {"measurement": "remaining activity at 1 µM", "setting": "panel of 391 kinases [1]; [27]", "value": 109, "unit": "%"},
      {"measurement": "% Enzyme Activity (relative to DMSO controls)", "setting": "panel of 391 kinases [2]", "value": 93.55, "unit": "%"},
      {"measurement": "remaining activity at 1 µM", "setting": "panel of 391 kinases [2]; [27]", "value": 101, "unit": "%"},
      {"measurement": "% Enzyme Activity (relative to DMSO controls)", "setting": "panel of 391 kinases [3]", "value": 100.46, "unit": "%"},
      {"measurement": "remaining activity at 1 µM", "setting": "panel of 391 kinases [3]; [27]", "value": 101, "unit": "%"},
      {"measurement": "% Enzyme Activity (relative to DMSO controls)", "setting": "panel of 391 kinases [4]", "value": 99.62, "unit": "%"},
      {"measurement": "remaining activity at 1 µM", "setting": "panel of 391 kinases [4]; [27]", "value": 100, "unit": "%"},
      {"measurement": "% Enzyme Activity (relative to DMSO controls)", "setting": "panel of 391 kinases [5]", "value": 98.63, "unit": "%"},
      {"measurement": "remaining activity at 1 µM", "setting": "panel of 391 kinases [5]; [27]", "value": 99.6, "unit": "%"},
      {"measurement": "% Enzyme Activity (relative to DMSO controls)", "setting": "panel of 391 kinases [6]", "value": 97.81, "unit": "%"},
      {"measurement": "remaining activity at 1 µM", "setting": "panel of 391 kinases [6]; [27]", "value": 99, "unit": "%"},
      {"measurement": "% Enzyme Activity (relative to DMSO controls)", "setting": "panel of 391 kinases [7]", "value": 97.96, "unit": "%"},
      {"measurement": "remaining activity at 1 µM", "setting": "panel of 391 kinases [7]; [27]", "value": 98.1, "unit": "%"},
      {"measurement": "% Enzyme Activity (relative to DMSO controls)", "setting": "panel of 391 kinases [8]", "value": 105.57, "unit": "%"},
      {"measurement": "remaining activity at 1 µM", "setting": "panel of 391 kinases [8]; [27]", "value": 114, "unit": "%"},
      {"measurement": "% Enzyme Activity (relative to DMSO controls)", "setting": "panel of 391 kinases [9]", "value": 82.35, "unit": "%"},
      {"measurement": "remaining activity at 1 µM", "setting": "panel of 391 kinases [9]; [27]", "value": 85.3, "unit": "%"},
      {"measurement": "% Enzyme Activity (relative to DMSO controls)", "setting": "panel of 391 kinases [10]", "value": 95.37, "unit": "%"},
      {"measurement": "remaining activity at 1 µM", "setting": "panel of 391 kinases [10]; [27]", "value": 97.8, "unit": "%"},
      {"measurement": "% Enzyme Activity (relative to DMSO controls)", "setting": "panel of 391 kinases [11]", "value": 103.49, "unit": "%"},
      {"measurement": "remaining activity at 1 µM", "setting": "panel of 391 kinases [11]; [27]", "value": 104, "unit": "%"},
      {"measurement": "% Enzyme Activity (relative to DMSO controls)", "setting": "panel of 391 kinases [12]", "value": 100.50, "unit": "%"},
      {"measurement": "remaining activity at 1 µM", "setting": "panel of 391 kinases [12]; [27]", "value": 102, "unit": "%"},
      {"measurement": "% Enzyme Activity (relative to DMSO controls)", "setting": "panel of 391 kinases [13]", "value": 100.16, "unit": "%"},
      {"measurement": "remaining activity at 1 µM", "setting": "panel of 391 kinases [13]; [27]", "value": 101, "unit": "%"},
      {"measurement": "% Enzyme Activity (relative to DMSO controls)", "setting": "panel of 391 kinases [14]", "value": 90.89, "unit": "%"},
      {"measurement": "remaining activity at 1 µM", "setting": "panel of 391 kinases [14]; [27]", "value": 91, "unit": "%"},
      {"measurement": "% Enzyme Activity (relative to DMSO controls)", "setting": "panel of 391 kinases [15]", "value": 99.69, "unit": "%"},
      {"measurement": "remaining activity at 1 µM", "setting": "panel of 391 kinases [15]; [27]", "value": 102, "unit": "%"},
      {"measurement": "% Enzyme Activity (relative to DMSO controls)", "setting": "panel of 391 kinases [16]", "value": 85.69, "unit": "%"},
      {"measurement": "remaining activity at 1 µM", "setting": "panel of 391 kinases [16]; [27]", "value": 93.7, "unit": "%"},
      {"measurement": "% Enzyme Activity (relative to DMSO controls)", "setting": "panel of 391 kinases [17]", "value": 104.62, "unit": "%"},
      {"measurement": "remaining activity at 1 µM", "setting": "panel of 391 kinases [17]; [27]", "value": 112, "unit": "%"},
      {"measurement": "% Enzyme Activity (relative to DMSO controls)", "setting": "panel of 391 kinases [18]", "value": 94.86, "unit": "%"},
      {"measurement": "remaining activity at 1 µM", "setting": "panel of 391 kinases [18]; [27]", "value": 99.6, "unit": "%"},
      {"measurement": "% Enzyme Activity (relative to DMSO controls)", "setting": "panel of 391 kinases [19]", "value": 91.44, "unit": "%"},
      {"measurement": "remaining activity at 1 µM", "setting": "panel of 391 kinases [19]; [27]", "value": 95.1, "unit": "%"},
      {"measurement": "% Enzyme Activity (relative to DMSO controls)", "setting": "panel of 391 kinases [20]", "value": 100.63, "unit": "%"},
      {"measurement": "remaining activity at 1 µM", "setting": "panel of 391 kinases [20]; [27]", "value": 102, "unit": "%"},
      {"measurement": "% Enzyme Activity (relative to DMSO controls)", "setting": "panel of 391 kinases [21]", "value": 103.07, "unit": "%"},
      {"measurement": "remaining activity at 1 µM", "setting": "panel of 391 kinases [21]; [27]", "value": 103, "unit": "%"},
      {"measurement": "% Enzyme Activity (relative to DMSO controls)", "setting": "panel of 391 kinases [22]", "value": 98.07, "unit": "%"},
      {"measurement": "remaining activity at 1 µM", "setting": "panel of 391 kinases [22]; [27]", "value": 99.2, "unit": "%"},
      {"measurement": "% Enzyme Activity (relative to DMSO controls)", "setting": "panel of 391 kinases [23]", "value": 93.74, "unit": "%"},
      {"measurement": "remaining activity at 1 µM", "setting": "panel of 391 kinases [23]; [27]", "value": 106, "unit": "%"},
      {"measurement": "% Enzyme Activity (relative to DMSO controls)", "setting": "panel of 391 kinases [24]", "value": 92.67, "unit": "%"},
      {"measurement": "remaining activity at 1 µM", "setting": "panel of 391 kinases [24]; [27]", "value": 94, "unit": "%"},
      {"measurement": "% Enzyme Activity (relative to DMSO controls)", "setting": "panel of 391 kinases [25]", "value": 97.74, "unit": "%"},
      {"measurement": "remaining activity at 1 µM", "setting": "panel of 391 kinases [25]; [27]", "value": 98.5, "unit": "%"},
      {"measurement": "% Enzyme Activity (relative to DMSO controls)", "setting": "panel of 391 kinases [26]", "value": 94.59, "unit": "%"},
      {"measurement": "remaining activity at 1 µM", "setting": "panel of 391 kinases [26]; [27]", "value": 95.4, "unit": "%"}
    ]}
  ]
}
